Measurements taken from the NIST ThermoML archive (doi:10.1021/je0602824).
Numbers after ± are expanded uncertainties.

Key:
[1] = 101 kPa, Liquid
[2] = xn = mol fraction of the nth substance listed; conditions: 101 kPa, Liquid, x1 = 1

Row | Structure (SMILES) | mass density ([1]; 278.15 K) [kg/m3] | viscosity ([1]; 278.15 K) [mPa·s] | mass density ([1]; 288.15 K) [kg/m3] | viscosity ([1]; 288.15 K) [mPa·s] | mass density ([1]; 298.15 K) [kg/m3] | viscosity ([1]; 298.15 K) [mPa·s] | mass density ([1]; 308.15 K) [kg/m3] | viscosity ([1]; 308.15 K) [mPa·s] | mass density ([1]; 318.15 K) [kg/m3] | viscosity ([1]; 318.15 K) [mPa·s] | mass density ([1]; 328.15 K) [kg/m3] | viscosity ([1]; 328.15 K) [mPa·s] | mass density ([1]; 338.15 K) [kg/m3] | viscosity ([1]; 338.15 K) [mPa·s] | mass density ([1]; 348.15 K) [kg/m3] | viscosity ([1]; 348.15 K) [mPa·s] | mass density ([2]; 278.15 K) [kg/m3] | mass density ([2]; 308.15 K) [kg/m3] | mass density ([2]; 328.15 K) [kg/m3] | mass density ([2]; 338.15 K) [kg/m3] | other results
1 | CCOS(=O)(=O)[O-].CCn1cc[n+](C)c1 [1-ethyl-3-methylimidazolium ethyl sulfate] | 1251.12 ± 3.3 | 308 ± 46 | 1244.13 ± 3.3 | 166 ± 17 | 1237.37 ± 3.2 | 95 ± 6 | 1230.61 ± 3.2 | 62 ± 4 | 1223.9 ± 3.1 | 41 ± 2 | 1217.23 ± 3 | 30 ± 2 | 1210.6 ± 3 | 21 ± 2 | 1204.01 ± 2.9 | 17 ± 2 | – | – | – | – | –
2 | CCn1cc[n+](C)c1.O=C([O-])C(F)(F)F [1-ethyl-3-methylimidazolium trifluoroacetate] | 1306.89 ± 12 | 78 ± 6 | 1298.81 ± 11 | 48 ± 3 | 1290.8 ± 11 | 32 ± 2 | 1282.85 ± 11 | 23 ± 2 | 1274.95 ± 11 | 17 ± 2 | 1267.12 ± 11 | 13 ± 2 | 1259.35 ± 11 | 10 ± 2 | 1251.63 ± 10 | 9 ± 2 | – | – | – | – | –
3 | CCn1cc[n+](C)c1.O=S(=O)([O-])C(F)(F)F [1-ethyl-3-methylimidazolium trifluoromethanesulfonate] | 1400.52 ± 14 | 96 ± 7 | 1392.04 ± 13 | 61 ± 4 | 1383.6 ± 13 | 41 ± 2 | 1375.22 ± 13 | 29 ± 2 | 1366.9 ± 13 | 21 ± 2 | 1358.63 ± 13 | 16 ± 2 | 1350.43 ± 12 | 13 ± 2 | 1342.3 ± 12 | 11 ± 2 | – | – | – | – | –
4 | O [water] + CCOS(=O)(=O)[O-].CCn1cc[n+](C)c1 | – | – | – | – | – | – | – | – | – | – | – | – | – | – | – | – | 999.99 ± 0.54 | 994.06 ± 0.58 | 985.71 ± 0.63 | 980.56 ± 0.67 | mass density ([2]; 348.15 K): 974.84 ± 0.7 kg/m3

The next lines start with results.

Row | mass density ([1]; 278.15 K) [kg/m3] | viscosity ([1]; 278.15 K) [mPa·s] | mass density ([1]; 288.15 K) [kg/m3] | viscosity ([1]; 288.15 K) [mPa·s] | mass density ([1]; 298.15 K) [kg/m3] | viscosity ([1]; 298.15 K) [mPa·s] | mass density ([1]; 308.15 K) [kg/m3] | viscosity ([1]; 308.15 K) [mPa·s] | mass density ([1]; 318.15 K) [kg/m3] | viscosity ([1]; 318.15 K) [mPa·s] | mass density ([1]; 328.15 K) [kg/m3] | viscosity ([1]; 328.15 K) [mPa·s] | mass density ([1]; 338.15 K) [kg/m3] | viscosity ([1]; 338.15 K) [mPa·s] | mass density ([1]; 348.15 K) [kg/m3] | viscosity ([1]; 348.15 K) [mPa·s] | mass density ([2]; 278.15 K) [kg/m3] | mass density ([2]; 308.15 K) [kg/m3] | mass density ([2]; 328.15 K) [kg/m3] | mass density ([2]; 338.15 K) [kg/m3] | Structure (SMILES) | other results
5 | – | – | – | – | – | – | – | – | – | – | – | – | – | – | – | – | 999.99 ± 0.54 | 994.06 ± 0.58 | 985.71 ± 0.63 | 980.56 ± 0.67 | O [water] + CCn1cc[n+](C)c1.O=C([O-])C(F)(F)F | mass density ([2]; 348.15 K): 974.84 ± 0.7 kg/m3
6 | – | – | – | – | – | – | – | – | – | – | – | – | – | – | – | – | 999.99 ± 0.54 | 994.06 ± 0.58 | 985.71 ± 0.63 | 980.56 ± 0.67 | O [water] + CCn1cc[n+](C)c1.O=S(=O)([O-])C(F)(F)F | mass density ([2]; 348.15 K): 974.84 ± 0.7 kg/m3
